From patent publication US9546164B2 (GENENTECH, INC., priority 2013, dated 2017)
Structures can show the parent of a compound that is named as a salt.

Target: hNav1.7 (Homo sapiens (Human), UniProt Q15858)
Assay: Tritiated sulfonamide competitive binding to membranes from cells expressing hNav1.7 and the β1 subunit;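 note: Filter-bound radioactivity counted by liquid scintillation, nonspecific binding defined with excess unlabelled ligand, IC50 fitted to percent inhibition of specific binding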
Conditions: read-out: Ligand Binding Assay; 100 pM [3H]compound, membranes with hNav1.7 and β1 subunit, 18 h, room temperature
Description: Tritiated Sulfonamide Binding to Membranes
Preparation of membranes containing recombinantly expressed sodium channels: Frozen recombinant cell pellets were thawed on ice and diluted to 4 times the cell pellet weight with ice cold 50 mM TrisHCl, pH 7.4 buffer. The cell suspensions were homogenized on ice using a motorized glass douncehomogeniser. Homogenates were further diluted 8.4 times with ice cold 50 mM TrisHCl, pH 7.4 buffer and then centrifuged at 200×g at 4° C. for 15 min. The supersatants were collected and centrifuged at 10000×g at 4° C. for 50 min. The pellets were then re-suspended in 100 mMNaCl, 20 mM TrisHCl, pH. 7.4 buffer containing 1% v/v protease inhibitors (Calbiochem) and re-homogenized on ice. The homogenized membranes were then processed through a syringe equipped with a 26 gauge needle. Protein concentrations were determined by Bradford Assay and the membranes were stored at −80° C.
Radioligand Binding Studies: Saturation experiments. A representative compound of formula (I) having a methyl group was tritiated. Three tritiums were incorporated in place of methyl hydrogens to generate [^3H]compound. Binding of this radioligand was preformed in 5 mL borosilicate glass test tubes at room temperature. Binding was initiated by adding membranes to increasing concentrations of [^3H]compound in 100 mM NaCl, 20 mM TrisHCl, pH 7.4 buffer containing 0.01% w/v bovine serum albumin (BSA) for 18 h. Non-specific binding was determined in the presence of 1 μM unlabelled compound. After 18 h, the reactants were filtered through GF/C glass fiber filters presoaked in 0.5% w/v polyethylene imine. Filters were washed with 15 mL ice cold 100 mM NaCl, 20 mM TrisHCl, pH7.4 buffer containing 0.25% BSA to separate bound from free ligand. [^3H]compound bound to filters was quantified by liquid scintillation counting.
Competitive binding experiments: Binding reactions were preformed its 96-well polypropylene plates at room temperature for 18 h. In 360 μL, membranes were incubated with 100 pM [^3H]compound and increasing concentrations of Test Compound. Non-specific binding was defined in the presence of 1 μM unlabelled compound. Reactions were transferred and filtered through 96-well glass fiber/C filter plates presoaked with 0.5% polyethylene imine. The filtered reactions were washed 5 times with 200 μL ice cold butter containing 0.25% BSA. Bound radioactivity was determined by liquid scintillation counting.
Data Analysis: For saturation experiments, non-specific binding was subtracted from total binding to provide specific binding and these values were recalculated in terms of pmol ligand bound per mg protein. Saturation curves were constructed and dissociation constants were calculated using the single site ligand binding model: Beq=(Bmax*X)/(X+KD), where Beq is the amount of ligand bound at equilibrium, Bmax is the maximum receptor density, Kd is the dissociation constant for the ligand, and X is the tree ligand concentration. For competition studies percent inhibition was determined and IC50 values were calculated using a 4 parameter logistic model (% inhibition=(A+((B−A)/(1+((x/C)^D)))) using XLfit, where A and B are the maximal and minimum inhibition respectively, C is the IC50 concentration and D is the (Hill) slope.

hNav1.7, sequence (Q15858 other isoform, or with tags, fused parts or gaps): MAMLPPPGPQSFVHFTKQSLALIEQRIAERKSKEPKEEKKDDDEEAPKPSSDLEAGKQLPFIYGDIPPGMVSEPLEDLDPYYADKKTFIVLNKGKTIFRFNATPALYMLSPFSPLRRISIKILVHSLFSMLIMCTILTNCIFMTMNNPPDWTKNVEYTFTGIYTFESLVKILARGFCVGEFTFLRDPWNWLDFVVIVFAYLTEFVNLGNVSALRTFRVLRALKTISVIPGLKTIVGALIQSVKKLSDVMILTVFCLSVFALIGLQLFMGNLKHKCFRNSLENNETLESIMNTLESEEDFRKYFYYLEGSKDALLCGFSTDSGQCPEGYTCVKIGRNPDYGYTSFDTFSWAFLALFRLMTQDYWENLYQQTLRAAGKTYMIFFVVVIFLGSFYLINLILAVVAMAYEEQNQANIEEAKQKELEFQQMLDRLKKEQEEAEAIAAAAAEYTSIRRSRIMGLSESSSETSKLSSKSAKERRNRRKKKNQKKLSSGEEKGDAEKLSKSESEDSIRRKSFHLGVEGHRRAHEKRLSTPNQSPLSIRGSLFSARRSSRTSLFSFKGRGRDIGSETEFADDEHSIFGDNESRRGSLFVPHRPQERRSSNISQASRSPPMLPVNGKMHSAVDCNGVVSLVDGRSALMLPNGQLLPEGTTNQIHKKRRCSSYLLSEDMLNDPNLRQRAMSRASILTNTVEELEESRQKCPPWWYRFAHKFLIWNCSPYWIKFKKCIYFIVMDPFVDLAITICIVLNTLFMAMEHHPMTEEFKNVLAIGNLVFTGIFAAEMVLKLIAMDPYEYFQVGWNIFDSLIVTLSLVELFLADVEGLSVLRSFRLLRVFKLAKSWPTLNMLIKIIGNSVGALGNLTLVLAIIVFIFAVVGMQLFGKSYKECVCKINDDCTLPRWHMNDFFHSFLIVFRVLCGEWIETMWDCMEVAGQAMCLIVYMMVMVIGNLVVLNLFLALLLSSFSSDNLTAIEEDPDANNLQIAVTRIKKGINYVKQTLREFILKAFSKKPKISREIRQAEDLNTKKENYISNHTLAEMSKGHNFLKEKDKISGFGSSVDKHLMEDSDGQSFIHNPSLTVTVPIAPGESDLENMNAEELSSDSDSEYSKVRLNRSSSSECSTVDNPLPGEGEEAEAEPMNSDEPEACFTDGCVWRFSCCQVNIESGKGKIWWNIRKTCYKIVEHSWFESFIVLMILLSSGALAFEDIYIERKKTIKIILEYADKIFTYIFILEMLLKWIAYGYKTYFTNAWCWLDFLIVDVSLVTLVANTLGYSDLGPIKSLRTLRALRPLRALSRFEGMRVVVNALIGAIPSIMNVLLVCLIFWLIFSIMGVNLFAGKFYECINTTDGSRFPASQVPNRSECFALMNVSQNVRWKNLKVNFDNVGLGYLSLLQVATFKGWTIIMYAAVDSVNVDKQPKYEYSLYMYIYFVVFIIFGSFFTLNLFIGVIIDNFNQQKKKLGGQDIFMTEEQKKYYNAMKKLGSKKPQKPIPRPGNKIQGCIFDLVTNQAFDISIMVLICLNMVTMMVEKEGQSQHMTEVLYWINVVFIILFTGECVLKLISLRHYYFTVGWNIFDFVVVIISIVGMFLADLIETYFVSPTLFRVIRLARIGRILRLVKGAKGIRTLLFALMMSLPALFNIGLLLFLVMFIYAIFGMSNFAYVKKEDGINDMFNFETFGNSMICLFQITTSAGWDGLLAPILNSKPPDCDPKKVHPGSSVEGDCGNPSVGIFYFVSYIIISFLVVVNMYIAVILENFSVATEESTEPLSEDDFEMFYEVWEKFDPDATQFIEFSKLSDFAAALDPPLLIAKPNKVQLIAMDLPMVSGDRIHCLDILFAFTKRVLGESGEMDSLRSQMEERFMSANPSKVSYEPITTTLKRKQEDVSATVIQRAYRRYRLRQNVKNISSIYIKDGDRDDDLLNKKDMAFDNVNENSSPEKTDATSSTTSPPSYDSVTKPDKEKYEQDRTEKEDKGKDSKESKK
hNav1.7, sequence (Q07699 19-218 partner): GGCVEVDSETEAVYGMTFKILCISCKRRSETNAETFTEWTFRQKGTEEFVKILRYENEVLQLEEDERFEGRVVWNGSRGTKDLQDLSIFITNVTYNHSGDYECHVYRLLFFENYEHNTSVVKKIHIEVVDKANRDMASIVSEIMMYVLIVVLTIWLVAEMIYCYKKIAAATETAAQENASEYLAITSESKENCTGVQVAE

CS(=O)(=O)NC(=O)c1cc(C2CC2)c(CN2CCO[C@H](Cc3ccc(Cl)c(Cl)c3)C2)cc1F [Example 458, (R)-5-cyclopropyl-4-((2-(3,4-dichlorobenzyl)morpholino)methyl)-2-fluoro-N-(methylsulfonyl)benzamide]
IC50: 4.4 nM

O=C(NS(=O)(=O)N1CCC1)c1cc(C2CC2)c(CN2CCO[C@H](Cc3ccc(Cl)c(Cl)c3)C2)cc1F [Example 459, (R)—N-(azetidin-1-ylsulfonyl)-5-cyclopropyl-4-((2-(3,4-dichlorobenzyl)morpholino)methyl)-2-fluorobenzamide]
IC50: 12.5 nM

O=C(NS(=O)(=O)C1CC1)c1cc(C2CC2)c(CN2CCO[C@H](Cc3ccc(Cl)c(Cl)c3)C2)cc1F [Example 460, (R)-5-cyclopropyl-N-(cyclopropylsulfonyl)-4-((2-(3,4-dichlorobenzyl)morpholino)methyl)-2-fluorobenzamide]
IC50: 5 nM

CS(=O)(=O)NC(=O)c1cc(C2CC2)c(CN2CCO[C@@H](Cc3ccc(Cl)c(Cl)c3)C2)cc1F [Example 461, (S)-5-cyclopropyl-4-((2-(3,4-dichlorobenzyl)morpholino)methyl)-2-fluoro-N-(methylsulfonyl)benzamide]
IC50: 42.1 nM

O=C(NS(=O)(=O)C1CC1)c1cc(C2CC2)c(CN2CCO[C@@H](Cc3ccc(Cl)c(Cl)c3)C2)cc1F [Example 462]
IC50: 36.3 nM

O=C(NS(=O)(=O)N1CCC1)c1cc(C2CC2)c(CN2CCO[C@H](Cc3cc(Cl)cc(Cl)c3)C2)cc1F [Example 465, (R)—N-(azetidin-1-ylsulfonyl)-5-cyclopropyl-4-((2-(3,5-dichlorobenzyl)morpholino)methyl)-2-fluorobenzamide, trifluoroacetic acid salt]
IC50: 12.8 nM

CS(=O)(=O)NC(=O)c1cc(C2CC2)c(CN2CCO[C@H](Cc3ccc(F)cc3Cl)C2)cc1F [Example 466, (R)-4-((2-(2-chloro-4-fluorobenzyl)morpholino)methyl)-5-cyclopropyl-2-fluoro-N-(methylsulfonyl)benzamide, trifluoroacetic acid salt]
IC50: 7.3 nM

O=C(NS(=O)(=O)C1CC1)c1cc(C2CC2)c(CN2CCO[C@H](Cc3ccc(F)cc3Cl)C2)cc1F [Example 467, (R)-4-((2-(2-chloro-4-fluorobenzyl)morpholino)methyl)-5-cyclopropyl-N-(cyclopropylsulfonyl)-2-fluorobenzamide, trifluoroacetic acid salt]
IC50: 4.3 nM

O=C(NS(=O)(=O)N1CCC1)c1cc(C2CC2)c(CN2CCO[C@H](Cc3ccc(F)cc3Cl)C2)cc1F [Example 468, (R)-N-(azetidin-1-ylsulfonyl)-4-((2-(2-chloro-4-fluorobenzyl)morpholino)methyl)-5-cyclopropyl-2-fluorobenzamide, trifluoroacetic acid salt]
IC50: 11.3 nM

CC1(C)CO[C@H](Cc2cc(Cl)cc(Cl)c2)CN1Cc1cc(F)c(C(=O)NS(C)(=O)=O)cc1C1CC1 [Example 469, (R)-5-cyclopropyl-4-((2-(3,5-dichlorobenzyl)-5,5-dimethylmorpholino)methyl)-2-fluoro-N-(methylsulfonyl)benzamide, trifluoroacetic acid salt]
IC50: 98.9 nM

O=C(NS(=O)(=O)C1CC1)c1cc(C2CC2)c(CN2[C@@H]3CC[C@H]2CC(Oc2cc(C(F)(F)F)cc(Cl)c2F)C3)cc1F (stereo partly drawn) [Example 470, 4-(((1R,3r,5S)-3-(3-chloro-2-fluoro-5-(trifluoromethyl)phenoxy)-8-azabicyclo[3.2.1]octan-8-yl)methyl)-5-cyclopropyl-N-(cyclopropylsulfonyl)-2-fluorobenzamide, trifluoroacetic acid salt]
IC50: 3.8 nM

CS(=O)(=O)NC(=O)c1cc(C2CC2)c(CN2[C@@H]3CC[C@H]2CC(Oc2cc(C(F)(F)F)cc(Cl)c2F)C3)cc1F (stereo partly drawn) [Example 471, 4-(((1R,3r,5S)-3-(3-chloro-2-fluoro-5-(trifluoromethyl)phenoxy)-8-azabicyclo[3.2.1]octan-8-yl)methyl)-5-cyclopropyl-2-fluoro-N-(methylsulfonyl)benzamide 2,2,2-trifluoroacetate]
IC50: 3.7 nM

CC1(Oc2cc(C(F)(F)F)c(Cl)cn2)CCN(Cc2cc(F)c(C(=O)NS(=O)(=O)C3CC3)cc2C2CC2)CC1 [Example 472, 4-((4-((5-chloro-4-(trifluoromethyl)pyridin-2-yl)oxy)-4-methylpiperidin-1-yl)methyl)-5-cyclopropyl-N-(cyclopropylsulfonyl)-2-fluorobenzamide, trifluoroacetic acid salt]
IC50: 3.6 nM

O=C(NS(=O)(=O)C1CC1)c1cc(C2CC2)c(CN2CCC(Oc3ncc(Br)cc3Cl)CC2)cc1F [Example 473, 4-((4-((5-bromo-3-chloropyridin-2-yl)oxy)piperidin-1-yl)methyl)-5-cyclopropyl-N-(cyclopropylsulfonyl)-2-fluorobenzamide, trifluoroacetic acid salt]
IC50: 9.5 nM

CS(=O)(=O)NC(=O)c1cc(C2CC2)c(CN2CCC(Oc3ccc(C(F)(F)F)cn3)CC2)cc1F [Example 476, 5-cyclopropyl-2-fluoro-N-(methylsulfonyl)-4-((4-((5-trifluoromethyl)pyridin-2-yl)oxypiperidin-1-yl)methyl)benzamide, trifluoroacetic acid salt]
IC50: 37.2 nM

CS(=O)(=O)NC(=O)c1cc(C2CC2)c(CN2CCC(OCc3ccc(F)cc3Cl)CC2)cc1F [Example 478, 4-((4-((2-chloro-4-fluorobenzyl)oxy)piperidin-1-yl)methyl)-5-cyclopropyl-2-fluoro-N-(methylsulfonyl)benzamide, trifluoroacetic acid salt]
IC50: 38.1 nM

O=C(NS(=O)(=O)N1CCC1)c1cc(C2CC2)c(CN2CCC(OCc3ccc(F)cc3Cl)CC2)cc1F [Example 479, N-(azetidin-1-ylsulfonyl)-4-((4-((2-chloro-4-fluorobenzyl)oxy)piperidin-1-yl)methyl)-5-cyclopropyl-2-fluorobenzamide, trifluoroacetic acid salt]
IC50: 55.3 nM

O=C(NS(=O)(=O)C1CC1)c1cc(C2CC2)c(CN2CCC(OCc3ccc(F)cc3Cl)CC2)cc1F [Example 480, 4-((4-((2-chloro-4-fluorobenzyl)oxy)piperidin-1-yl)methyl)-5-cyclopropyl-N-(cyclopropylsulfonyl)-2-fluorobenzamide, trifluoroacetic acid salt]
IC50: 21.8 nM

CC1(COc2cc(F)c(C(=O)NS(=O)(=O)C3CC3)cc2C2CC2)CN(c2ncc(C(F)(F)F)cc2Cl)C1 [Example 481, 4-((1-(3-chloro-5-(trifluoromethyl)pyridin-2-yl)-3-methylazetidin-3-yl)methoxy)-5-cyclopropyl-N-(cyclopropylsulfonyl)-2-fluorobenzamide]
IC50: 3.1 nM

CCS(=O)(=O)NC(=O)c1cc(C2CC2)c(OCC2(C)CN(c3ncc(C(F)(F)F)cc3Cl)C2)cc1F [Example 482, 4-((1-(3-chloro-5-(trifluoromethyl)pyridin-2-yl)-3-methylazetidin-3-yl)methoxy)-5-cyclopropyl-N-(ethylsulfonyl)-2-fluorobenzamide]
IC50: 3.3 nM

CC1(COc2cc(F)c(C(=O)NS(=O)(=O)C3CC3)cc2C2CC2)CN(c2ncc(Cl)cc2F)C1 [Example 483, 4-((1-(5-chloro-3-fluoropyridin-2-yl)-3-methylazetidin-3-yl)methoxy)-5-cyclopropyl-N-(cyclopropylsulfonyl)-2-fluorobenzamide]
IC50: 5.2 nM
